Test results as given in ChEMBL document CHEMBL1955750, “Benzodiazepines and benzotriazepines as protein interaction inhibitors targeting bromodomains of the BET family” (Bioorg Med Chem, 2012).
Active and inactive are the calls of the source. The calls are words filed in the database; no cut-off is given here.

Experiments:
[1] = biological target: Bromodomain testis-specific protein (Homo sapiens) (UniProt Q58F21); experiment: Binding affinity to BRDT-BD1 assessed as change in melting temperature at 10 uM by protein stability shift assay
[2] = biological target: Bromodomain-containing protein 3 (Homo sapiens) (UniProt Q15059); experiment: Binding affinity to BRD3-BD2 assessed as change in melting temperature at 100 uM by protein stability shift assay
[3] = biological target: Bromodomain-containing protein 3 (Homo sapiens) (UniProt Q15059); experiment: Binding affinity to BRD3-BD1 assessed as change in melting temperature at 10 uM by protein stability shift assay
[4] = Binding affinity to LOC93349 assessed as change in melting temperature at 100 uM by protein stability shift assay
[5] = biological target: CREB-binding protein (Homo sapiens) (UniProt Q92793); experiment: Binding affinity to CREBBP assessed as change in melting temperature at 100 uM by protein stability shift assay
[6] = biological target: T1, Bromodomain-containing protein 4 (Homo sapiens, UniProt O60885); experiment: Binding affinity to BRD4-BD1 assessed as change in melting temperature at 10 uM by protein stability shift assay
[7] = biological target: Histone acetyltransferase KAT2B (Homo sapiens) (UniProt Q92831); experiment: Binding affinity to PCAF assessed as change in melting temperature at 100 uM by protein stability shift assay
[8] = biological target: T1, Bromodomain-containing protein 4; experiment: Binding affinity to BRD4-BD2 assessed as change in melting temperature at 10 uM by protein stability shift assay
[9] = biological target: T1, Bromodomain-containing protein 4; experiment: Binding affinity to BRD4-BD1 assessed as change in melting temperature at 100 uM by protein stability shift assay
[10] = biological target: Bromodomain adjacent to zinc finger domain protein 2B (Homo sapiens) (UniProt Q9UIF8); experiment: Binding affinity to BAZ2B assessed as change in melting temperature at 100 uM by protein stability shift assay
[11] = biological target: T1, Bromodomain-containing protein 4; experiment: Binding affinity to BRD4-BD2 assessed as change in melting temperature at 100 uM by protein stability shift assay
[12] = biological target: Bromodomain testis-specific protein (Homo sapiens) (UniProt Q58F21); experiment: Binding affinity to BRDT-BD1 assessed as change in melting temperature at 100 uM by protein stability shift assay
[13] = biological target: Bromodomain-containing protein 3 (Homo sapiens) (UniProt Q15059); experiment: Binding affinity to BRD3-BD2 assessed as change in melting temperature at 10 uM by protein stability shift assay
[14] = biological target: Histone acetyltransferase KAT2B (Homo sapiens) (UniProt Q92831); experiment: Binding affinity to PCAF assessed as change in melting temperature at 10 uM by protein stability shift assay
[15] = biological target: Bromodomain-containing protein 2 (Homo sapiens) (UniProt P25440); experiment: Binding affinity to BRD2-BD1 assessed as change in melting temperature at 10 uM by protein stability shift assay
[16] = biological target: Bromodomain-containing protein 3 (Homo sapiens) (UniProt Q15059); experiment: Binding affinity to BRD3-BD1 assessed as change in melting temperature at 100 uM by protein stability shift assay
[17] = biological target: Bromodomain-containing protein 2 (Homo sapiens) (UniProt P25440); experiment: Binding affinity to BRD2-BD1 assessed as change in melting temperature at 100 uM by protein stability shift assay
[18] = Binding affinity to LOC93349 assessed as change in melting temperature at 10 uM by protein stability shift assay
[19] = biological target: Protein polybromo-1 (Homo sapiens) (UniProt Q86U86); experiment: Binding affinity to PB1 assessed as change in melting temperature at 100 uM by protein stability shift assay
[20] = biological target: Bromodomain adjacent to zinc finger domain protein 2B (Homo sapiens) (UniProt Q9UIF8); experiment: Binding affinity to BAZ2B assessed as change in melting temperature at 10 uM by protein stability shift assay
[21] = biological target: Bromodomain-containing protein 2 (Homo sapiens) (UniProt P25440); experiment: Binding affinity to BRD2-BD2 assessed as change in melting temperature at 10 uM by protein stability shift assay
[22] = biological target: Protein polybromo-1 (Homo sapiens) (UniProt Q86U86); experiment: Binding affinity to PB1 assessed as change in melting temperature at 10 uM by protein stability shift assay
[23] = biological target: CREB-binding protein (Homo sapiens) (UniProt Q92793); experiment: Binding affinity to CREBBP assessed as change in melting temperature at 10 uM by protein stability shift assay
[24] = biological target: Bromodomain-containing protein 2 (Homo sapiens) (UniProt P25440); experiment: Binding affinity to BRD2-BD2 assessed as change in melting temperature at 100 uM by protein stability shift assay
[25] = biological target: T1, Bromodomain-containing protein 4
Description: Binding affinity to BRD4-BD1 assessed as change in melting temperature by isothermal titration calorimetry

Bromodomain-containing protein 3 (Homo sapiens), sequence (Q15059 2-726 limits assumed): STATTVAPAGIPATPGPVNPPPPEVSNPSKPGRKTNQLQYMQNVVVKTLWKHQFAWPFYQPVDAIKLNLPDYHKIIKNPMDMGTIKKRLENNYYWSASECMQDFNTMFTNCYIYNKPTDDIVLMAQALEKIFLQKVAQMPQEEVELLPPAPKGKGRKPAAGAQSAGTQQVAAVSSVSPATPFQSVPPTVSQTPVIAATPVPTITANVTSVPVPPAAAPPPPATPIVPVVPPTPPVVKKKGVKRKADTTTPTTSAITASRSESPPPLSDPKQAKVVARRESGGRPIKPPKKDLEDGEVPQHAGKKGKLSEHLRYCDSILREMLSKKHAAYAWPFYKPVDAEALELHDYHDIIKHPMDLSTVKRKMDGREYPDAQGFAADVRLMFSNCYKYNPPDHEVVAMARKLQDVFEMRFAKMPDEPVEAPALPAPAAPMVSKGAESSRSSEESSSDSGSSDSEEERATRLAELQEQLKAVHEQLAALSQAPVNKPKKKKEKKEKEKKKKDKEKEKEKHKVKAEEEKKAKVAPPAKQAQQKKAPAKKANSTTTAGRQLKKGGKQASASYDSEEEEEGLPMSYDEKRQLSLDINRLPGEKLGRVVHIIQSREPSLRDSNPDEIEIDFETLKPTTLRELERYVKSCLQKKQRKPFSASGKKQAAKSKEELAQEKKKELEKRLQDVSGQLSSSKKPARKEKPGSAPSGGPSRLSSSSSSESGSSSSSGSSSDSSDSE
Bromodomain adjacent to zinc finger domain protein 2B (Homo sapiens), sequence (Q9UIF8 whole entry, the tested form may be a part): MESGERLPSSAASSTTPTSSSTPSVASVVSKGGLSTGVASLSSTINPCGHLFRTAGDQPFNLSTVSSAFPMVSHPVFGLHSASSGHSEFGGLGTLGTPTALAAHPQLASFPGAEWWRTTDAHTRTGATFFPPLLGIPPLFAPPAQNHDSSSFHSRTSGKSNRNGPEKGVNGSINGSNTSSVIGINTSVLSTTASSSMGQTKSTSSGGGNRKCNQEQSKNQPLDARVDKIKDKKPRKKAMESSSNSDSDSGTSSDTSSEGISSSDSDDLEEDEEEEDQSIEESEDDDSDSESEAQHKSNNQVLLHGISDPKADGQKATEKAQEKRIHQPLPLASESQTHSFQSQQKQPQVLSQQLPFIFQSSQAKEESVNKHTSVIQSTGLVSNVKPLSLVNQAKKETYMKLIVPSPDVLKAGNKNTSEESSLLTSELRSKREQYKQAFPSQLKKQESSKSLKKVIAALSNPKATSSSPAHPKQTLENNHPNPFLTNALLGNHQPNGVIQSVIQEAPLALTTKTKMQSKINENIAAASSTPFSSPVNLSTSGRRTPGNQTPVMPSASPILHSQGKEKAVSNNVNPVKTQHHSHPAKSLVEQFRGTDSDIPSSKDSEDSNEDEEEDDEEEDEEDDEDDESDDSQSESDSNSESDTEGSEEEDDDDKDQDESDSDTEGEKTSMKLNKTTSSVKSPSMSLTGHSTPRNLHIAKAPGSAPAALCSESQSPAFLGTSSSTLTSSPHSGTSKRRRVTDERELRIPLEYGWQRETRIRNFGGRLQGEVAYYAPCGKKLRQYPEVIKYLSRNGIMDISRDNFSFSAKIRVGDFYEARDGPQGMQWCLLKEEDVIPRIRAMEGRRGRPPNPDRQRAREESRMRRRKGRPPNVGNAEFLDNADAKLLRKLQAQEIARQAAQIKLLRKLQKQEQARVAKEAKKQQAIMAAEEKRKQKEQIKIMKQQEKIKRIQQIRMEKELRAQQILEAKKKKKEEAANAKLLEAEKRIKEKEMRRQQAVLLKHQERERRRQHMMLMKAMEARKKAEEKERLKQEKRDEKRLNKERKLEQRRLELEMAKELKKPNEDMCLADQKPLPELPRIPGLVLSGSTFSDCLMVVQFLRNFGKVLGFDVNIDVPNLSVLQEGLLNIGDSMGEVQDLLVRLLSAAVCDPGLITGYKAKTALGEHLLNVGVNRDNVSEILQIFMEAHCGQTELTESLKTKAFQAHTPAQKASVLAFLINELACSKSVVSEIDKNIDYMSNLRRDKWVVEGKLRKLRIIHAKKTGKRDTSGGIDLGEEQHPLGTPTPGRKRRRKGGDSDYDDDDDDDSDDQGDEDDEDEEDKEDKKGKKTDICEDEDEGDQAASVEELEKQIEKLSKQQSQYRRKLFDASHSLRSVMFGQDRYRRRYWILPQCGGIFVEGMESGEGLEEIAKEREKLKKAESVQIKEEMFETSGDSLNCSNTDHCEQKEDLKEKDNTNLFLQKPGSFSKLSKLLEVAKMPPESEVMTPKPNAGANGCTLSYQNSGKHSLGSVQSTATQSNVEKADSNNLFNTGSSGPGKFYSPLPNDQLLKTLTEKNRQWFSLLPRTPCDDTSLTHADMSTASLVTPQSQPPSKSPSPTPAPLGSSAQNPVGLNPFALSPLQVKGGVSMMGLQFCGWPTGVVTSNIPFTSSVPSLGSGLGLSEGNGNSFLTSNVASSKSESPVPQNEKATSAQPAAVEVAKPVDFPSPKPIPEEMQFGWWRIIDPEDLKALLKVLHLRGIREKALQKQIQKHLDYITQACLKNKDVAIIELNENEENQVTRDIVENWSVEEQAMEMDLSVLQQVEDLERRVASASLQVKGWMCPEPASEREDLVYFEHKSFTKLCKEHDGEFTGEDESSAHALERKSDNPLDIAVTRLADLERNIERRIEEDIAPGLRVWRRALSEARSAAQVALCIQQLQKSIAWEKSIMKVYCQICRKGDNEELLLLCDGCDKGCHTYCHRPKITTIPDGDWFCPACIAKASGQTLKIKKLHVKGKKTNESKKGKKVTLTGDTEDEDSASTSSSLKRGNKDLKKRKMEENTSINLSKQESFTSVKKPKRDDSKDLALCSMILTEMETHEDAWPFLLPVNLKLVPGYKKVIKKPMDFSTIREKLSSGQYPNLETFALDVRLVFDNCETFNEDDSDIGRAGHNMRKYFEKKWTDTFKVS
Histone acetyltransferase KAT2B (Homo sapiens), sequence (Q92831 whole entry, looked up): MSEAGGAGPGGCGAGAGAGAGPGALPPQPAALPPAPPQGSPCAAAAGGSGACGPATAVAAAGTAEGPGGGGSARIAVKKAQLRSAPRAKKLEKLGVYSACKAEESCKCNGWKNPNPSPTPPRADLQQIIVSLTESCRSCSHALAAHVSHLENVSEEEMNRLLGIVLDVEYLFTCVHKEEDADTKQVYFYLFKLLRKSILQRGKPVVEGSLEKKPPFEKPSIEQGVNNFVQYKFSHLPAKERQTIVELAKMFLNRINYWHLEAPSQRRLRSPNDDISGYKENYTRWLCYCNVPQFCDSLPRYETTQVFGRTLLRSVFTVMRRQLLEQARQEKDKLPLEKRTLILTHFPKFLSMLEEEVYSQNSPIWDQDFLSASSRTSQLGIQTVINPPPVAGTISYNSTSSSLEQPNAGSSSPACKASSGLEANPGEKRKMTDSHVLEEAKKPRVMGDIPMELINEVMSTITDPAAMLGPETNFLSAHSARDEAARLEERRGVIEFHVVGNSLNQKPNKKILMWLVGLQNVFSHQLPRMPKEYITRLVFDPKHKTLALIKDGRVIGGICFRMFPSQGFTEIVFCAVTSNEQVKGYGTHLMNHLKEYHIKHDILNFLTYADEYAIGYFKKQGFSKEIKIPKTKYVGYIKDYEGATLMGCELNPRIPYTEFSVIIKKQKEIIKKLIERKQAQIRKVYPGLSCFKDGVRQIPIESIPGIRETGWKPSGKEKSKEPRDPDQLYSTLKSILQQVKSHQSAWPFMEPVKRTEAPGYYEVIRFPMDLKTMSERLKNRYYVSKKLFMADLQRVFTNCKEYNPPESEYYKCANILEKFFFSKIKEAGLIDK
Bromodomain-containing protein 2 (Homo sapiens), sequence (P25440 whole entry, looked up): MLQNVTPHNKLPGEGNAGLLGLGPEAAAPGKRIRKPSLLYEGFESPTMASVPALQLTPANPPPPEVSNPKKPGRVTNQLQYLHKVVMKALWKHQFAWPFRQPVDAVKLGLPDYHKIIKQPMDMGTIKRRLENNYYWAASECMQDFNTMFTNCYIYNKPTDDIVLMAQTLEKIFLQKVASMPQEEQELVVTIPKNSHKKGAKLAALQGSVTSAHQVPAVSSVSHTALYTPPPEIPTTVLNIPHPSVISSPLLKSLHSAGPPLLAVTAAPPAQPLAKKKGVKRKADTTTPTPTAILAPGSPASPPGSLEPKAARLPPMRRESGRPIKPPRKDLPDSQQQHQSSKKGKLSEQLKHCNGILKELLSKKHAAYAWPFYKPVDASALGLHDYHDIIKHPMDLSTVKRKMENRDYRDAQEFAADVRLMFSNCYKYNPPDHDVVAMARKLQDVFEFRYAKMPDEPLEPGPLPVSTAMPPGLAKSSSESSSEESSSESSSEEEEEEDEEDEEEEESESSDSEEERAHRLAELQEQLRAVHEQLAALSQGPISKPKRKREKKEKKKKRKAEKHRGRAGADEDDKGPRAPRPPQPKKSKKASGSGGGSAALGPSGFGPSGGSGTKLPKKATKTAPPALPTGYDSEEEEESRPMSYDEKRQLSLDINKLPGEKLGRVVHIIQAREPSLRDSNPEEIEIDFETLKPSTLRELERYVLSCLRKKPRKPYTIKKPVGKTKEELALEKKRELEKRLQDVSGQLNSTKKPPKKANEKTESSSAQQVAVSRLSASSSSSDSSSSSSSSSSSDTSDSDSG

Row | Compound | Activity [1] | ΔTm [2] | Activity [3] | ΔTm [4] | ΔTm [5] | Activity [6] | ΔTm [7] | Activity [8] | ΔTm [9] | ΔTm [10] | ΔTm [11] | ΔTm [12] | Activity [13] | Activity [14] | Activity [15] | ΔTm [16] | ΔTm [17] | Activity [18] | ΔTm [19] | ΔTm [24] | also measured
1 | Cc1nnc2n1-c1ccc(Cl)cc1C(c1ccccc1)=NN2C | Active | < 2 °C | Active | < 2 °C | < 2 °C | Active | < 2 °C | Active | < 2 °C | < 2 °C | < 2 °C | < 2 °C | Active | Active | Active | < 2 °C | < 2 °C | Active | < 2 °C | < 2 °C | Activity [20]: inactive; Activity [21]: Active; Activity [22]: Active; Activity [23]: Active; ΔTm [25]: 4.2 °C
2 | CCC1=NCc2nnc(-c3ccncc3)n2-c2ccc(Cl)cc21 | – | < 2 °C | – | < 2 °C | < 2 °C | – | < 2 °C | – | < 2 °C | < 2 °C | < 2 °C | < 2 °C | – | – | – | < 2 °C | < 2 °C | – | < 2 °C | < 2 °C | –
3 | CCC1=NCC(=O)Nc2ccc(Cl)cc21 | – | < 2 °C | – | < 2 °C | < 2 °C | – | < 2 °C | – | < 2 °C | < 2 °C | < 2 °C | < 2 °C | – | – | – | < 2 °C | < 2 °C | – | < 2 °C | < 2 °C | –
4 | CCC1=NCc2nnc(C)n2-c2ccc(Cl)cc21 | – | < 2 °C | – | < 2 °C | < 2 °C | – | < 2 °C | – | < 2 °C | < 2 °C | < 2 °C | < 2 °C | – | – | – | < 2 °C | < 2 °C | – | < 2 °C | < 2 °C | –
5 | CCC1=NCc2nnc(-c3cccc(OC)c3)n2-c2ccc(Cl)cc21 | – | < 2 °C | – | < 2 °C | < 2 °C | – | < 2 °C | – | < 2 °C | < 2 °C | < 2 °C | < 2 °C | – | – | – | < 2 °C | < 2 °C | – | < 2 °C | < 2 °C | –
6 | Cc1nnc2n1-c1ccc(Cl)cc1C(c1ccccc1)=NC2 [ALPRAZOLAM] | Active | – | Active | – | – | Active | – | Active | – | – | – | – | Active | inactive | Active | – | – | inactive | – | – | Activity [20]: inactive; Activity [21]: Active; Activity [22]: Active; Activity [23]: Active; ΔTm [25]: 4.7 °C
7 | CCOC(=O)c1ncn2c1[C@@H]1CCCN1C(=O)c1cc(OC)ccc1-2 | inactive | – | Active | – | – | Active | – | Active | – | – | – | – | inactive | inactive | Active | – | – | inactive | – | – | Activity [20]: inactive; Activity [21]: inactive; Activity [22]: inactive; Activity [23]: inactive
8 | CCC1=NCC(=S)Nc2ccc(Cl)cc21 | – | < 2 °C | – | < 2 °C | < 2 °C | – | < 2 °C | – | < 2 °C | < 2 °C | < 2 °C | < 2 °C | – | – | – | < 2 °C | < 2 °C | – | < 2 °C | < 2 °C | –
9 | CCC1=NCc2nnc(CC)n2-c2ccc(Cl)cc21 | – | < 2 °C | – | < 2 °C | < 2 °C | – | < 2 °C | – | < 2 °C | < 2 °C | < 2 °C | < 2 °C | – | – | – | < 2 °C | < 2 °C | – | < 2 °C | < 2 °C | –
10 | CN1N=C(c2ccccc2)c2cc(Cl)ccc2NC1=S | – | < 2 °C | – | < 2 °C | < 2 °C | – | < 2 °C | – | < 2 °C | < 2 °C | < 2 °C | < 2 °C | – | – | – | < 2 °C | < 2 °C | – | < 2 °C | < 2 °C | –
11 | CCC1=NCc2nnc(-c3ccccc3)n2-c2ccc(Cl)cc21 | – | < 2 °C | – | < 2 °C | < 2 °C | – | < 2 °C | – | < 2 °C | < 2 °C | < 2 °C | < 2 °C | – | – | – | < 2 °C | < 2 °C | – | < 2 °C | < 2 °C | –
12 | CN1N=C(c2ccccc2)c2cc(Cl)ccc2-n2c(N)nnc21 | – | < 2 °C | – | < 2 °C | < 2 °C | – | < 2 °C | – | < 2 °C | < 2 °C | < 2 °C | < 2 °C | – | – | – | < 2 °C | < 2 °C | – | < 2 °C | < 2 °C | –
13 | Clc1ccc2c(c1)C(c1ccccc1)=NCc1nncn1-2 | inactive | – | Active | – | – | Active | – | Active | – | – | – | – | Active | inactive | inactive | – | – | inactive | – | – | Activity [20]: inactive; Activity [21]: inactive; Activity [22]: inactive; Activity [23]: Active
14 | CC(=O)NNC1=Nc2ccc(Cl)cc2C(c2ccccc2)=NN1C | – | < 2 °C | – | < 2 °C | < 2 °C | – | < 2 °C | – | < 2 °C | < 2 °C | < 2 °C | < 2 °C | – | – | – | < 2 °C | < 2 °C | – | < 2 °C | < 2 °C | –
15 | CN1N=C(c2ccccc2)c2cc(Cl)ccc2-n2c1n[nH]c2=O | – | < 2 °C | – | < 2 °C | < 2 °C | – | < 2 °C | – | < 2 °C | < 2 °C | < 2 °C | < 2 °C | – | – | – | < 2 °C | < 2 °C | – | < 2 °C | < 2 °C | –
16 | Cc1ncc2n1-c1ccc(Cl)cc1C(c1ccccc1F)=NC2 | Active | – | Active | – | – | Active | – | Active | – | – | – | – | Active | inactive | Active | – | – | inactive | – | – | Activity [20]: inactive; Activity [21]: Active; Activity [22]: inactive; Activity [23]: Active
